Patent publication US11873320B2 (REATA PHARMACEUTICALS HOLDINGS, LLC, priority 2013, dated 2024)

Experiments:
[1] = metabolism in human liver microsomes
[2] = oral pharmacokinetics in monkeys; type: in vivo, monkey; conditions: 3 mg/kg
Protocol: Following oral administration of a suspension formulation at doses of 10 to 100 mg/kg, maximal concentrations were observed within 1 to 2 hours in mice, and within 1 to 24 hours in rats and monkeys.

[3] = tested on: Nrf2 target genes; experiment: Nrf2 target gene expression in BEAS-2B bronchial epithelial cells; type: cell-based, human; conditions: 18 hours
[4] = oral pharmacokinetics, statements pooled over mice, rats and monkeys; type: in vivo
[5] = tested on: genotoxicity (micronucleated polychromatic erythrocytes); experiment: in vivo micronucleus study
[6] = tested on: acute radiation dermatitis; experiment: acute radiation dermatitis model, BALB/c mice; type: in vivo, mouse
Protocol: Using male BALB/c mice, a 30 Gy dose of radiation was administered on day 0 (Table 3). […] The remaining mice were sacrificed on day 30 at 4 hours postdose. Plasma was collected on days 12 and 30 as well as irradiated skin samples for mRNA and histological examination. [table]

[7] = tested on: fractionated radiation dermatitis; experiment: fractionated radiation dermatitis model, Balb/c mice; type: in vivo, mouse; conditions: 0.1 to 1% topical formulations
Protocol: The mice were irradiated on days 0-2 and 5-7 with six 10-Gy doses […]. Clinical dermatitis scores for the mice were evaluated blindly every two days from day 4 until the end of the study. […] Study and treatment parameters can be found in Table 6.
By analyzing the average clinical scores that were shown in FIG. 43, an area under the curve (AUC) analysis was performed, which yielded the severity of the dermatitis relative to how long the dermatitis persisted.

[8] = molecular target: MRP-1 (Homo sapiens, UniProt P33527); experiment: in vitro efflux by MRP-1; conditions: not told
Sequence of MRP-1 (P33527 whole entry): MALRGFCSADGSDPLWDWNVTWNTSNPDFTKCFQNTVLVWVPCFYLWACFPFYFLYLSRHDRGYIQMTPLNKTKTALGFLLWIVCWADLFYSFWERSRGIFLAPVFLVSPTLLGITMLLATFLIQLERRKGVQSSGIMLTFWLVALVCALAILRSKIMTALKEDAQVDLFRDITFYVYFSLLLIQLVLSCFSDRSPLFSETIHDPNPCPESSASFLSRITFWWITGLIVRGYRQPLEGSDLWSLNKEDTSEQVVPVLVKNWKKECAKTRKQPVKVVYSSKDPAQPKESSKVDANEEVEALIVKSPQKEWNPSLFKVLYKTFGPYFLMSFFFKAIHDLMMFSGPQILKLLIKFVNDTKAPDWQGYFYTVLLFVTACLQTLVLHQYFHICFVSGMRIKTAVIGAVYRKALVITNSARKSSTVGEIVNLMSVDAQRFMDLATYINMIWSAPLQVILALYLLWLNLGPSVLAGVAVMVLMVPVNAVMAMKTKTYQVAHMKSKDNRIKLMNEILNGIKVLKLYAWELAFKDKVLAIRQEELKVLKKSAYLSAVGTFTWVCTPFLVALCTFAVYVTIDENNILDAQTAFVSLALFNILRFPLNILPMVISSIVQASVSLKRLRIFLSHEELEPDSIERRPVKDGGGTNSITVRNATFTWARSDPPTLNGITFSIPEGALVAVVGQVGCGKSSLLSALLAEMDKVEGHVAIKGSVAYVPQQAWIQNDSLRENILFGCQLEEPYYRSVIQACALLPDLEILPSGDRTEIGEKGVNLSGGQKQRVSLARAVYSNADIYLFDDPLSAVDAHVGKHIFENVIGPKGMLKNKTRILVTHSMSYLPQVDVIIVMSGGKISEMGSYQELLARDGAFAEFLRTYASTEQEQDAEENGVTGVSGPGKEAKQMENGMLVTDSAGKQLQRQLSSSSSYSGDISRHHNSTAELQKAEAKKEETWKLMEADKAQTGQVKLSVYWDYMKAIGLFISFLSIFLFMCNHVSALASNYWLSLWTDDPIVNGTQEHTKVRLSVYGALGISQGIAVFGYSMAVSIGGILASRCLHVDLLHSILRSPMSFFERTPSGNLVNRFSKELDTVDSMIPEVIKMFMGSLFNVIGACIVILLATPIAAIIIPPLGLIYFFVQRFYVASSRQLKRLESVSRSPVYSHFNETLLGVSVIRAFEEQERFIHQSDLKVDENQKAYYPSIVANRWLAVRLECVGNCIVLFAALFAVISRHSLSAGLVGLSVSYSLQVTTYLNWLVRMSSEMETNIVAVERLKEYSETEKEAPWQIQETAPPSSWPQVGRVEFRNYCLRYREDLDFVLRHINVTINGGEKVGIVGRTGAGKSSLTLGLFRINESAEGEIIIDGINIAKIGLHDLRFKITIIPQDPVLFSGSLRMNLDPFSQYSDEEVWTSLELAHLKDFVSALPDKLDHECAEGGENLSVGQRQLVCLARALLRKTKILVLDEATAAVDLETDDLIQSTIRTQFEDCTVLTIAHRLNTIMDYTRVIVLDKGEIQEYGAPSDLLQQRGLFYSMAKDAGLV

[9] = tested on: glutathione levels; experiment: induction of glutathione levels, RAW264.7 mouse model; type: cell-based
Source text: Glutathione and NADPH are critical factors required for the maintenance of cellular redox capacity. […] Data shown are representative of two independent experiments.

Structure (SMILES): CC1(C)CC[C@]2(NC(=O)C(C)(F)F)CC[C@]3(C)[C@H](C(=O)C=C4[C@@]5(C)C=C(C#N)C(=O)C(C)(C)[C@@H]5CC[C@]43C)[C@@H]2C1 [RTA 408, N-((4aS,6aR,6bS,8aR,12aS,14aR,14bS)-11-cyano-2,2,6a,6b,9,9,12a-heptamethyl-10,14-dioxo-1,2,3,4,4a,5,6,6a,6b,7,8,8a,9,10,12a,14,14a,14b-octadecahydropicen-4a-yl)-2,2-difluoropropanamide]
- unique human metabolites [1]: No unique human metabolites
- parent molecule remaining ([1]; 60-minute incubation, NADPH and UGT): < 10%
- dose-normalized systemic exposure of loose-filled capsule vs suspension formulation [2]: somewhat lower
- expression of Nrf2 target genes [3]: dose-dependent increase of all Nrf2 target genes evaluated
- dose dependence of systemic exposure ([4]; 3 to 100 mg/kg, suspension): dose-proportional increases in systemic exposure
- exposure at higher doses ([4]; 100 to 800 mg/kg in monkeys, 500 to 2000 mg/kg in rats): saturation of absorption at doses above 100 mg/kg
- systemic exposure by sex ([4]; in vivo): generally similar in males and females
- exposure after repeated daily oral administration vs single dose ([4]; in vivo, po): ≤ 2 fold
- Change from Control (%) ([5]; 125 mg/kg, 24-h timepoint): −8%
- Number of MPCE/1000 PCE (Mean +/− SD) ([5]; 125 mg/kg, 24-h timepoint): 0.3 ± 0.27
- Number of MPCE/PCE Scored ([5]; 125 mg/kg, 24-h timepoint): 3/10000
- PCE/Total Erythrocytes (Mean +/− SD) ([5]; 125 mg/kg, 24-h timepoint): 0.543 ± 0.03
- Change from Control (%) ([5]; 125 mg/kg, 48-h timepoint): −14%
- Number of MPCE/1000 PCE (Mean +/− SD) ([5]; 125 mg/kg, 48-h timepoint): 0.2 ± 0.27
- Number of MPCE/PCE Scored ([5]; 125 mg/kg, 48-h timepoint): 2/10000
- PCE/Total Erythrocytes (Mean +/− SD) ([5]; 125 mg/kg, 48-h timepoint): 0.453 ± 0.03
- Change from Control (%) ([5]; 250 mg/kg, 24-h timepoint): −12%
- Number of MPCE/1000 PCE (Mean +/− SD) ([5]; 250 mg/kg, 24-h timepoint): 0.3 ± 0.27
- Number of MPCE/PCE Scored ([5]; 250 mg/kg, 24-h timepoint): 3/10000
- PCE/Total Erythrocytes (Mean +/− SD) ([5]; 250 mg/kg, 24-h timepoint): 0.520 ± 0.06
- Change from Control (%) ([5]; 250 mg/kg, 48-h timepoint): −26%
- Number of MPCE/1000 PCE (Mean +/− SD) ([5]; 250 mg/kg, 48-h timepoint): 0.2 ± 0.27
- Number of MPCE/PCE Scored ([5]; 250 mg/kg, 48-h timepoint): 2/10000
- PCE/Total Erythrocytes (Mean +/− SD) ([5]; 250 mg/kg, 48-h timepoint): 0.391 ± 0.02
- Change from Control (%) ([5]; 500 mg/kg, 24-h timepoint): −28%
- Number of MPCE/1000 PCE (Mean +/− SD) ([5]; 500 mg/kg, 24-h timepoint): 0.0 ± 0.00
- Number of MPCE/PCE Scored ([5]; 500 mg/kg, 24-h timepoint): 0/10000
- PCE/Total Erythrocytes (Mean +/− SD) ([5]; 500 mg/kg, 24-h timepoint): 0.426 ± 0.07
- Change from Control (%) ([5]; 500 mg/kg, 48-h timepoint): −36%
- Number of MPCE/1000 PCE (Mean +/− SD) ([5]; 500 mg/kg, 48-h timepoint): 0.3 ± 0.45
- Number of MPCE/PCE Scored ([5]; 500 mg/kg, 48-h timepoint): 3/10000
- PCE/Total Erythrocytes (Mean +/− SD) ([5]; 500 mg/kg, 48-h timepoint): 0.339 ± 0.05
- Change from Control (%) ([5]; 1000 mg/kg, 24-h timepoint): −15%
- Number of MPCE/1000 PCE (Mean +/− SD) ([5]; 1000 mg/kg, 24-h timepoint): 0.2 ± 0.27
- Number of MPCE/PCE Scored ([5]; 1000 mg/kg, 24-h timepoint): 2/10000
- PCE/Total Erythrocytes (Mean +/− SD) ([5]; 1000 mg/kg, 24-h timepoint): 0.498 ± 0.05
- Change from Control (%) ([5]; 1000 mg/kg, 48-h timepoint): −35%
- Number of MPCE/1000 PCE (Mean +/− SD) ([5]; 1000 mg/kg, 48-h timepoint): 0.1 ± 0.22
- Number of MPCE/PCE Scored ([5]; 1000 mg/kg, 48-h timepoint): 1/10000
- PCE/Total Erythrocytes (Mean +/− SD) ([5]; 1000 mg/kg, 48-h timepoint): 0.344 ± 0.04
- Change from Control (%) ([5]; 1500 mg/kg, 24-h timepoint): −15%
- Number of MPCE/1000 PCE (Mean +/− SD) ([5]; 1500 mg/kg, 24-h timepoint): 0.4 ± 0.22
- Number of MPCE/PCE Scored ([5]; 1500 mg/kg, 24-h timepoint): 4/10000
- PCE/Total Erythrocytes (Mean +/− SD) ([5]; 1500 mg/kg, 24-h timepoint): 0.499 ± 0.06
- Change from Control (%) ([5]; 1500 mg/kg, 48-h timepoint): −39%
- Number of MPCE/1000 PCE (Mean +/− SD) ([5]; 1500 mg/kg, 48-h timepoint): 0.4 ± 0.42
- Number of MPCE/PCE Scored ([5]; 1500 mg/kg, 48-h timepoint): 4/10000
- PCE/Total Erythrocytes (Mean +/− SD) ([5]; 1500 mg/kg, 48-h timepoint): 0.376 ± 0.05
- Change from Control (%) ([5]; 2000 mg/kg, 24-h timepoint): −10%
- Number of MPCE/1000 PCE (Mean +/− SD) ([5]; 2000 mg/kg, 24-h timepoint): 0.2 ± 0.27
- Number of MPCE/PCE Scored ([5]; 2000 mg/kg, 24-h timepoint): 2/10000
- PCE/Total Erythrocytes (Mean +/− SD) ([5]; 2000 mg/kg, 24-h timepoint): 0.531 ± 0.05
- Change from Control (%) ([5]; 2000 mg/kg, 48-h timepoint): −32%
- Number of MPCE/1000 PCE (Mean +/− SD) ([5]; 2000 mg/kg, 48-h timepoint): 0.1 ± 0.22
- Number of MPCE/PCE Scored ([5]; 2000 mg/kg, 48-h timepoint): 1/10000
- PCE/Total Erythrocytes (Mean +/− SD) ([5]; 2000 mg/kg, 48-h timepoint): 0.360 ± 0.03
- genotoxicity in the in vivo micronucleus study ([5]; 125-2000 mg/kg): 63415 is Negative for Genotoxicity
- percentage of mice with dermatitis clinical score above 3 ([6]; oral administration): significantly lower
- Percentage of mice which scored above 2 in clinical dermatitis exam ([6]; topical 0.01%, Day 12): 0.0%
- Percentage of mice which scored above 2 in clinical dermatitis exam ([6]; topical 0.01%, Day 14): 0.0%
- Percentage of mice which scored above 2 in clinical dermatitis exam ([6]; topical 0.01%, Day 16): 20.0%
- Percentage of mice which scored above 2 in clinical dermatitis exam ([6]; topical 0.01%, Day 18): 50.0%
- Percentage of mice which scored above 2 in clinical dermatitis exam ([6]; topical 0.01%, Day 20): 10.0%
- Percentage of mice which scored above 2 in clinical dermatitis exam ([6]; topical 0.01%, Day 22): 40.0%
- Percentage of mice which scored above 2 in clinical dermatitis exam ([6]; topical 0.01%, Day 24): 40.0%
- Percentage of mice which scored above 2 in clinical dermatitis exam ([6]; topical 0.01%, Day 26): 40.0%
- Percentage of mice which scored above 2 in clinical dermatitis exam ([6]; topical 0.01%, Day 28): 20.0%
- Percentage of mice which scored above 2 in clinical dermatitis exam ([6]; topical 0.01%, Day 30): 10.0%
- Percentage of mice which scored above 2 in clinical dermatitis exam ([6]; topical 0.1%, Day 12): 7.1%
- Percentage of mice which scored above 2 in clinical dermatitis exam ([6]; topical 0.1%, Day 14): 10.0%
- Percentage of mice which scored above 2 in clinical dermatitis exam ([6]; topical 0.1%, Day 16): 20.0%
- Percentage of mice which scored above 2 in clinical dermatitis exam ([6]; topical 0.1%, Day 18): 80.0%
- Percentage of mice which scored above 2 in clinical dermatitis exam ([6]; topical 0.1%, Day 20): 60.0%
- Percentage of mice which scored above 2 in clinical dermatitis exam ([6]; topical 0.1%, Day 22): 40.0%
- Percentage of mice which scored above 2 in clinical dermatitis exam ([6]; topical 0.1%, Day 24): 30.0%
- Percentage of mice which scored above 2 in clinical dermatitis exam ([6]; topical 0.1%, Day 26): 10.0%
- Percentage of mice which scored above 2 in clinical dermatitis exam ([6]; topical 0.1%, Day 28): 0.0%
- Percentage of mice which scored above 2 in clinical dermatitis exam ([6]; topical 0.1%, Day 30): 0.0%
- Percentage of mice which scored above 2 in clinical dermatitis exam ([6]; topical 1.0%, Day 14): 20.0%
- Percentage of mice which scored above 2 in clinical dermatitis exam ([6]; topical 1.0%, Day 16): 10.0%
- Percentage of mice which scored above 2 in clinical dermatitis exam ([6]; topical 1.0%, Day 18): 70.0%
- Percentage of mice which scored above 2 in clinical dermatitis exam ([6]; topical 1.0%, Day 20): 30.0%
- Percentage of mice which scored above 2 in clinical dermatitis exam ([6]; topical 1.0%, Day 22): 10.0%
- Percentage of mice which scored above 2 in clinical dermatitis exam ([6]; topical 1.0%, Day 24): 0.0%
- Percentage of mice which scored above 2 in clinical dermatitis exam ([6]; topical 1.0%, Day 26): 0.0%
- Percentage of mice which scored above 2 in clinical dermatitis exam ([6]; topical 1.0%, Day 28): 0.0%
- Percentage of mice which scored above 2 in clinical dermatitis exam ([6]; topical 1.0%, Day 30): 0.0%
- percentage of mice with dermatitis clinical score above 2 ([6]; topical administration): slightly lower
- average clinical dermatitis scores over time [7]: statistically significant improvement in the scores
- MRP-1 substrate status [8]: not a substrate of MRP-1
- EC50 [9]: 9.9 nM
